In patent publication US11638713B2, “Patentiflorin A analogs as antiviral agents” (priority 2019, dated 2023):

Columns and labels:
HIV = assay: microbe, parasite or virus in culture; assay type: cell-based; conditions: for EC50: Human immunodeficiency virus 1, A549
in vitro = conditions: human
[1] = tested on: VSV (vesicular stomatitis virus); assay: microbe, parasite or virus in culture; assay type: cell-based; conditions: A549, read-out: EC50 against VSV
H5N1 virus = assay: microbe, parasite or virus in culture; assay type: cell-based, H5N1 influenza virus; conditions: Influenza A virus; for inhibition at 0.05 µg/mL: H5N1, A549, 50 ng/mL; for inhibition at 0.25 µg/mL: H5N1, A549, 250 ng/mL; for EC50: H5N1, A549, read-out: EC50 against H5N1 virus
EBOV (Ebola virus) = assay: microbe, parasite or virus in culture; assay type: cell-based; conditions: Zaire ebolavirus, A549, read-out: EC50 against EBOV
[2] = read-out: % Inhibition against H5N1 virus
[3] = CC50 against the host cell line A549

Row | SMILES | EC50 (HIV) [nM] | CC50 (in vitro; CC50 (nM)) [nM] | also measured
1 | COc1cc2c(C3=CCN(C(=O)OC(C)(C)C)CC3)c3c(c(-c4ccc5c(c4)OCO5)c2cc1OC)C(=O)OC3 [Compound 19l] | 75.9 | 4190 | –
2 | COc1cc2c(OC3O[C@H](C)[C@@H](O)[C@H](OC(C)=O)[C@H]3O)c3c(c(-c4ccc5c(c4)OCO5)c2cc1OC)C(=O)OC3 (stereo partly drawn) [Compound 27bb, 3″-Acetyl-7-O-β-D-patentiflorin A] | 1.01 | 589 | anti-HIV activity in terms of SI values (HIV): much more improved anti-HIV activity
3 | COc1cc2c(-c3ccco3)c3c(c(-c4ccc5c(c4)OCO5)c2cc1OC)C(=O)OC3 [Compound 19k] | 60.1 | 1060 | –
4 | COc1cc2c(NC(C)=O)c3c(c(-c4ccc5c(c4)OCO5)c2cc1OC)C(=O)OC3 [Compound 24] | 88.9 | > 11900 | –
5 | CNC(=O)COc1c2c(c(-c3ccc4c(c3)OCO4)c3cc(OC)c(OC)cc13)C(=O)OC2 [Compound 14b] | 278 | 2120 | –
6 | COc1cc2c(C#C[Si](C)(C)C)c3c(c(-c4ccc5c(c4)OCO5)c2cc1OC)C(=O)OC3 [Compound 19o] | 35.7 | 1220 | –
7 | CCc1c2c(c(-c3ccc4c(c3)OCO4)c3cc(OC)c(OC)cc13)C(=O)OC2 [Compound 19g] | 19.3 | 196 | –
8 | COc1cc2c(OCC(=O)OC(C)(C)C)c3c(c(-c4ccc5c(c4)OCO5)c2cc1OC)C(=O)OC3 [Compound 12a] | 518 | > 10100 | –
9 | COc1cc2c(Oc3ncccn3)c3c(c(-c4ccc5c(c4)OCO5)c2cc1OC)C(=O)OC3 [Compound 17d] | 1590 | 61100 | –
10 | COc1cc2c(OC)c3c(c(-c4ccc5c(c4)OCO5)c2cc1OC)C(=O)OC3 [Compound 17b] | 2.6 | 2140 | anti-HIV activity in terms of SI values (HIV): much more improved anti-HIV activity
11 | COc1cc2c(OC(=O)C3CCCC3)c3c(c(-c4ccc5c(c4)OCO5)c2cc1OC)C(=O)OC3 [Compound 17f] | 772 | 7070 | –
12 | COc1cc2c(OS(=O)(=O)C(F)(F)F)c3c(c(-c4ccc5c(c4)OCO5)c2cc1OC)C(=O)OC3 [Compound 18] | 488 | 1360 | –
13 | COc1cc2c(-c3ccc4c(c3)OCO4)c3c(c(N4CCOCC4)c2cc1OC)COC3=O [Compound 19m] | 88.6 | 1500 | –
14 | COc1cc2c(OC3O[C@H](C)[C@@H](OC(C)=O)[C@H](OC(C)=O)[C@H]3O)c3c(c(-c4ccc5c(c4)OCO5)c2cc1OC)C(=O)OC3 (stereo partly drawn) [Compound 27bd, 3″, 4″-Diacetyl-7-O-β-D-patentiflorin A] | 6.39 | 421 | –
15 | COc1cc2c(Nc3ccccc3)c3c(c(-c4ccc5c(c4)OCO5)c2cc1OC)C(=O)OC3 [Compound 19f] | 976 | 4510 | –
16 | COc1cc2c(-c3cccnc3)c3c(c(-c4ccc5c(c4)OCO5)c2cc1OC)C(=O)OC3 [Compound 19i] | 877 | 38400 | –
17 | COc1cc2c(-c3ccc4c(c3)OCO4)c3c(c(C(C)O)c2cc1OC)COC3=O (stereo not drawn) [Compound 20] | 21.7 | 389 | –
18 | COc1cc2c(OC(=O)c3ccc(F)cc3)c3c(c(-c4ccc5c(c4)OCO5)c2cc1OC)C(=O)OC3 [Compound 17g] | 79.9 | 1320 | –
19 | C=CCOC(=O)O[C@@H]1COC(Oc2c3c(c(-c4ccc5c(c4)OCO5)c4cc(OC)c(OC)cc24)C(=O)OC3)[C@H](OC(=O)OCC=C)[C@H]1OC(=O)N(C)C (stereo partly drawn) [Compound 30a, 2″,4″-O-diallyl oxycarbonyl-3″-O-dimethylcarbamyl-7-O-β-D-xylosyldiphyllin] | – | 145 | EC50 [1]: 8.6 nM; inhibition at 0.0125 µg/mL (H5N1 virus; H5N1, A549, 12.5 ng/mL, read-out: % Inhibition against H5N1 virus): 44.1%; inhibition at 0.05 µg/mL (H5N1 virus; [2]): 95.7%; inhibition at 0.25 µg/mL (H5N1 virus; [2]): 97.6%; EC50 (H5N1 virus): 3.88 nM; EC50 (EBOV (Ebola virus)): 1.84 nM; CC50 (in vitro; [3]): 35.2 nM
20 | C#CCOc1c2c(c(-c3ccc4c(c3)OCO4)c3cc(OC)c(OC)cc13)C(=O)OC2 [Compound 17c] | 4.8 | 890 | anti-HIV activity in terms of SI values (HIV): much more improved anti-HIV activity
21 | C=CCOC(=O)O[C@H]1[C@H](O)[C@@H](OC(=O)OCC=C)C(Oc2c3c(c(-c4ccc5c(c4)OCO5)c4cc(OC)c(OC)cc24)C(=O)OC3)O[C@@H]1C (stereo partly drawn) [Compound 29b, 2″,4″-O-diallyl oxycarbonyl-7-O-β-D-patentiflorin A] | 4.7 | 187 | –

Row | SMILES | EC50 (HIV) [nM] | CC50 (in vitro; CC50 (nM)) [nM] | also measured
22 | COc1cc2c(OC3O[C@H](C)[C@@H](OC(C)=O)[C@H](O)[C@H]3OC(C)=O)c3c(c(-c4ccc5c(c4)OCO5)c2cc1OC)C(=O)OC3 (stereo partly drawn) [Compound 27be, 2″,4″-Diacetyl-7-O-β-D-patentiflorin A] | 1.96 | 1670 | –
23 | COc1cc2c(OC3O[C@H](C)[C@@H](O)[C@H](OC(=O)c4cc([N+](=O)[O-])cc([N+](=O)[O-])c4)[C@H]3O)c3c(c(-c4ccc5c(c4)OCO5)c2cc1OC)C(=O)OC3 (stereo partly drawn) [Compound 31b, 3″-O-(3,5-dinitrobenzoyl)-7-O-β-D-patentiflorin A] | 13.4 | 684 | –
24 | COc1cc2c(N)c3c(c(-c4ccc5c(c4)OCO5)c2cc1OC)C(=O)OC3 [Compound 22] | 1.61 | 358 | anti-HIV activity in terms of SI values (HIV): much more improved anti-HIV activity
25 | COc1cc2c(Nc3ccc(C(F)(F)F)cc3)c3c(c(-c4ccc5c(c4)OCO5)c2cc1OC)C(=O)OC3 [Compound 19e] | 212 | > 9550 | –
26 | COc1cc2c(OC3O[C@H](CO)[C@H](O)[C@H](O)[C@H]3O)c3c(c(-c4ccc5c(c4)OCO5)c2cc1OC)C(=O)OC3 (stereo partly drawn) [Compound 26g, 7-O-β-D-galactopyranosyldiphyllin] | 1400 | 7770 | EC50 [1]: 210 nM; EC50 (H5N1 virus): 63.6 nM; EC50 (EBOV (Ebola virus)): 123 nM; CC50 (in vitro; [3]): 4130 nM
27 | COc1cc2c(OC3O[C@@H](C)[C@@H](O)[C@@H](O)[C@@H]3O)c3c(c(-c4ccc5c(c4)OCO5)c2cc1OC)C(=O)OC3 (stereo partly drawn) [Compound 26d, 7-O-β-L-fucopyranosyldiphyllin] | 42.3 | > 9500 | anti-HIV activity in terms of SI values (HIV): much more improved anti-HIV activity
28 | C=CCOC(=O)O[C@H]1C(Oc2c3c(c(-c4ccc5c(c4)OCO5)c4cc(OC)c(OC)cc24)C(=O)OC3)OC[C@@H](O)[C@@H]1OC(C)=O (stereo partly drawn) [Compound 28ab2, 2″-O-allyl oxycarbonyl-3″-acetyl-7-O-β-D-xylosyldiphyllin] | 2.3 | 386 | EC50 [1]: 4.98 nM; EC50 (H5N1 virus): 0.23 nM; EC50 (EBOV (Ebola virus)): 16.3 nM; CC50 (in vitro; [3]): 108 nM
29 | COc1cc2c(C)c3c(c(-c4ccc5c(c4)OCO5)c2cc1OC)C(=O)OC3 [Compound 19b] | 6.1 | 77.3 | –
30 | C=CCOC(=O)O[C@@H]1COC(Oc2c3c(c(-c4ccc5c(c4)OCO5)c4cc(OC)c(OC)cc24)C(=O)OC3)[C@H](OC(=O)OCC=C)[C@H]1OC(C)=O (stereo partly drawn) [Compound 28ab3, 2″,4″-O-diallyl oxycarbonyl-3″-acetyl-7-O-β-D-xylosyldiphyllin] | 22.9 | 386 | EC50 [1]: 0.85 nM; EC50 (H5N1 virus): 1.16 nM; EC50 (EBOV (Ebola virus)): 0.98 nM; CC50 (in vitro; [3]): 6.14 nM
31 | COc1cc2c(-c3ccncc3)c3c(c(-c4ccc5c(c4)OCO5)c2cc1OC)C(=O)OC3 [Compound 19c] | 88.9 | 1670 | –
32 | COc1cc2c(OCC(=O)O)c3c(c(-c4ccc5c(c4)OCO5)c2cc1OC)C(=O)OC3 [Compound 13] | 23100 | > 114000 | –
33 | COc1cc2c(OC3O[C@H](C)[C@@H](OC(C)=O)[C@H](O)[C@H]3O)c3c(c(-c4ccc5c(c4)OCO5)c2cc1OC)C(=O)OC3 (stereo partly drawn) [Compound 27ba, 4″-Acetyl-7-O-β-D-patentiflorin A] | 8.47 | 1160 | –
34 | COc1cc2c(OC3O[C@H](C)[C@@H](O)[C@H](OC(C)=O)[C@H]3OC(C)=O)c3c(c(-c4ccc5c(c4)OCO5)c2cc1OC)C(=O)OC3 (stereo partly drawn) [Compound 27bf, 2″,3″-Diacetyl-7-O-β-D-patentiflorin A] | 1.17 | 308 | –
35 | COc1cc2c(-c3cccs3)c3c(c(-c4ccc5c(c4)OCO5)c2cc1OC)C(=O)OC3 [Compound 19h] | 270 | 2390 | –
36 | COc1cc2c(OCCO)c3c(c(-c4ccc5c(c4)OCO5)c2cc1OC)C(=O)OC3 [Compound 15a] | 33.6 | 918 | –
37 | COc1cc2c(OCC(C)(C)O)c3c(c(-c4ccc5c(c4)OCO5)c2cc1OC)C(=O)OC3 [Compound 15b] | 15.5 | 1330 | –
38 | COc1cc2c(C(C)=O)c3c(c(-c4ccc5c(c4)OCO5)c2cc1OC)C(=O)OC3 [Compound 19n] | 39.5 | 1060 | –
39 | C=CCOC(=O)O[C@@H]1COC(Oc2c3c(c(-c4ccc5c(c4)OCO5)c4cc(OC)c(OC)cc24)C(=O)OC3)[C@H](OC(=O)OCC=C)[C@H]1O (stereo partly drawn) [Compound 29a, 2″,4″-O-diallyl oxycarbonyl-7-O-β-D-xylosyldiphyllin] | – | 438 | EC50 [1]: 10.6 nM; inhibition at 0.05 µg/mL (H5N1 virus; [2]): 59.4%; inhibition at 0.25 µg/mL (H5N1 virus; [2]): 97.3%; EC50 (H5N1 virus): 5.57 nM; EC50 (EBOV (Ebola virus)): 10.6 nM; CC50 (in vitro; [3]): 122 nM
40 | COc1ccc(C(=O)Oc2c3c(c(-c4ccc5c(c4)OCO5)c4cc(OC)c(OC)cc24)C(=O)OC3)cc1 [Compound 17h] | 96.5 | 1460 | –
41 | COc1cc2cc3c(c(-c4ccc5c(c4)OCO5)c2cc1OC)C(=O)OC3 [Compound 19d] | 22.9 | 5430 | anti-HIV activity in terms of SI values (HIV): much more improved anti-HIV activity
42 | CCCC(=O)O[C@H]1[C@H](O)[C@@H](C)OC(Oc2c3c(c(-c4ccc5c(c4)OCO5)c4cc(OC)c(OC)cc24)C(=O)OC3)[C@@H]1O (stereo partly drawn) [Compound 31c, 3″-O-butyryl-7-O-β-D-patentiflorin A] | 0.03 | 13.4 | anti-HIV activity in terms of SI values (HIV): much more improved anti-HIV activity
